{
  "source": "patent US11123335B2",
  "about": "“Method for preventing lung diseases in smokers and non-smokers using antihypertensive drug” (SEOUL NATIONAL UNIVERSITY R & DB FOUNDATION, priority 2015, dated 2021)",
  "key": {"IGF-1R [1]": {"system": "IGF-1R", "assay": "NE-mediated IGF-1R activation in lung epithelial cells", "format": "cell-based, human", "conditions": "NE-treated lung epithelial cells", "protocol": "(§1) Cells were washed twice with ice-cold PBS, and then lysed with a modified RIPA buffer [50 mM Tris-HCl (pH 7.4), 150 mM NaCl, 1 mM EDTA, 0.25% sodium deoxycholate, 1% Triton X-100, a protease inhibitor cocktail, 100 mM NaF, 1 mM Na3VO4]. Lysates were centrifuged at 13,000 rpm for 15 to 20 minutes to harvest supernatants, and then the collected proteins were quantified using the BCA method. Equivalent amounts of the proteins were subjected to electrophoresis using 8-15% SDS-PAGE, and then transferred to a PVDF membrane. The membrane was washed with TBST (0.01% Tween-20-containing Tris-buffered saline), and blocked in a blocking buffer (diluted in TBST to contain 5% skim milk) at room temperature for 1 hour. The membrane was incubated with primary antibodies diluted in 3% BSA-containing TBST at 4° C. for 12 hours, and washed with TBST for over 1 hour. The membrane was incubated with secondary antibodies diluted in TBST containing 3% skim milk at room temperature for 1 to 2 hours, and washed with TBST for over 1 hour. The membrane was reacted in an ECL solution, and band visualization was carried out by exposure to an X-ray film."}, "IGF2 [2]": {"system": "IGF2", "assay": "NE-mediated IGF2 secretion in lung epithelial cells", "format": "cell-based, human", "conditions": "NE-treated lung epithelial cells", "protocol": "ELISA for IGF1, IGF2 and NE were performed using commercially available ELISA kits (R&D Systems, DSL or Abnova) according to the manufacturer's instruction."}, "IGF-1R [3]": {"system": "IGF-1R", "assay": "IGF-1R phosphorylation on change of intracellular Ca2+ (Western blot)", "format": "cell-based, human", "conditions": "HBE/p53i cells", "protocol": "as §1"}, "IGF2 [4]": {"system": "IGF2", "assay": "IGF2 secretion in GFP-IGF2-overexpressing BEAS-2B cells", "format": "cell-based, human"}, "lung epithelial cells [5]": {"system": "lung epithelial cells", "assay": "NNK-induced viability, colony formation and foci formation of lung epithelial cells", "format": "cell-based, human", "protocol": "(§2) Cells (2-3×10^3 cells) were seeded into 96-well plates, treated with a test drug diluted with a medium, and then incubated for 3 days. After incubation, the cells were treated with an MTT solution to have a final concentration of 200-500 μg/ml and incubated for 2 to 4 hours. After discarding the medium, produced formazan was dissolved in DMSO, and then the absorbance at 570 nm was measured. Alternatively, cells were seeded into 12- or 24-well plates, collected after a predetermined time after treatment with a test drug, and then counted using a hemocytometer. 100 to 300 cells were seeded into 6- or 12-well plates and then treated with NNK or NNK and a test drug for 2 to 3 weeks. After 2 to 3 weeks, Colony formation was observed and the colonies were counted after stained staining with crystal violet. Before the experiment, low-melting agar (final concentration of agar: 1%) was diluted with a medium, and then 1 ml of the resulting solution was added and solidified in each 24-well plate, resulting in bottom agar. 2,000 to 5,000 cells were mixed with the low melting agar (final concentration of agar: 0.35-0.4%), 500 μl of the resulting mixture was added onto each bottom agar. After solidification of the agar, the cells were treated with NNK or a test drug, which was diluted with a medium. After 2 to 4 weeks after treatment, colonies were stained with an MTT solution, observed, and then counted. Lung epithelial cells at 90 to 95% confluency were treated with a carcinogen diluted with a growth factor-free medium, or a carcinogen and a test drug. After 2 to 3 weeks, foci formation was observed."}, "IGF-1R [6]": {"system": "IGF-1R", "assay": "NNK-induced IGF-1R activation in lung epithelial / lung cancer cells (Western blot)", "format": "cell-based, human", "conditions": "NNK-treated BEAS-2B cells", "protocol": "as §1"}, "A/J mice": {"system": "A/J mice", "assay": "NNK lung carcinogenesis animal model", "format": "in vivo, mouse", "conditions": "NNK 3 μmol oral twice a week, test drug oral 6 times a week, 20 weeks", "protocol": "NNK (3 μmol) was orally administered to A/J mice twice a week, and a test drug was orally administered thereto 6 times a week for a total of 20 weeks. Afterward, the mice were sacrificed, lungs were extracted from the mice, and the produced tumors were counted. Lung paraffin blocks were prepared, four or more tissue sections were prepared at regular intervals, and then stained by H&E staining as described below. Numbers and sizes of the tumors were measured to calculate volumes of the tumors. Paraffin blocks were sliced to have a thickness of 4 μm, placed onto silane-coated slides, and then dried. The dried slide glasses were deparaffinized overnight in a 65° C. dry oven. Afterward, the slide glasses were dipped in xylene for 5 minutes twice. After deparaffinization, the slide glasses were sequentially hydrated with 100%, 95%, 70%, and 50% ethanol, stained with a Harris hematoxylin solution for 1.5 minutes, dipped in a 1% HCl alcohol solution and ammonia, and then counterstained with an eosin solution for 30 seconds. Afterward, the resulting tissue sections were sequentially dehydrated using 95% and 100% ethanol, transparentized with xylene, and then mounted. Images were captured using a microscope."}, "lung epithelial cells [7]": {"system": "lung epithelial cells", "assay": "Transformation of lung epithelial cells by stress hormones", "format": "cell-based, human", "conditions": "treatment with the stress hormone alone", "protocol": "as §2"}, "lung epithelial cells [8]": {"system": "lung epithelial cells", "assay": "NE-induced viability and colony formation of lung epithelial cells", "format": "cell-based, human", "conditions": "NE-treated lung epithelial cells", "protocol": "as §2, with “100 to 300 cells were seeded into 6- or 12-well plates and then treated with NNK or NNK and a test drug for 2 to 3 weeks.” left out, “counted.” for “counted. Lung epithelial cells at 90 to 95% confluency were treated with a carcinogen diluted with a growth factor-free medium, or a carcinogen and a test drug. After 2 to 3 weeks, foci formation was observed.”"}},
  "note": "Like-named read-outs stand apart in the source and are kept apart here.",
  "data": [
    {"smiles": "CC(=O)OCOC(=O)CN(CC(=O)OCOC(C)=O)c1ccccc1OCCOc1ccccc1N(CC(=O)OCOC(C)=O)CC(=O)OCOC(C)=O", "note": "[BAPTA-AM, 1,2-bis(2-aminophenoxy)ethane-N,N,N′,N′-tetraacetic acid tetrakis(acetoxymethyl ester)]", "values": [
      {"measurement": "NE-mediated IGF-1R activation", "setting": "IGF-1R [1]", "value": "inhibited"},
      {"measurement": "NE-mediated IGF2 secretion", "setting": "IGF2 [2]", "value": "inhibited"},
      {"measurement": "IGF-1R phosphorylation", "setting": "IGF-1R [3]", "value": "inhibited"},
      {"measurement": "NNK-increased IGF2 secretion", "setting": "IGF2 [4]; GFP-IGF2-overexpressing BEAS-2B, with NNK", "value": "inhibited"}
    ]},
    {"smiles": "C[C@H](CS)C(=O)N1CCC[C@H]1C(=O)O", "note": "[captopril]", "values": [
      {"measurement": "NNK-induced promotion of cell viability", "setting": "lung epithelial cells [5]", "value": "suppressed"},
      {"measurement": "NNK-induced promotion of colony formation", "setting": "lung epithelial cells [5]", "value": "suppressed"},
      {"measurement": "NNK-induced promotion of foci formation", "setting": "lung epithelial cells [5]", "value": "suppressed"},
      {"measurement": "NNK-mediated IGF-1R activation", "setting": "IGF-1R [6]", "value": "inhibited"},
      {"measurement": "NNK-induced tumorigenesis", "setting": "A/J mice", "value": "significantly suppressed"}
    ]},
    {"smiles": "CCCCc1nc(Cl)c(CO)n1Cc1ccc(-c2ccccc2-c2nn[nH]n2)cc1", "note": "[losartan]", "values": [
      {"measurement": "NNK-induced promotion of cell viability", "setting": "lung epithelial cells [5]", "value": "suppressed"},
      {"measurement": "NNK-induced promotion of colony formation", "setting": "lung epithelial cells [5]", "value": "suppressed"},
      {"measurement": "NNK-induced promotion of foci formation", "setting": "lung epithelial cells [5]", "value": "suppressed"},
      {"measurement": "NNK-mediated IGF-1R activation", "setting": "IGF-1R [6]", "value": "inhibited"},
      {"measurement": "NNK-induced tumorigenesis", "setting": "A/J mice", "value": "significantly suppressed"}
    ]},
    {"smiles": "CNC[C@H](O)c1ccc(O)c(O)c1", "note": "[epinephrine]", "values": [
      {"measurement": "transformation of lung epithelial cells (viability, colony formation, foci formation)", "setting": "lung epithelial cells [7]", "value": "induced"}
    ]},
    {"smiles": "C[C@H](CCC(=O)O)C[C@H](C)C[C@H](C)C(=O)/C=C(\\O)[C@H](C)C[C@H](C)C/C=C/[C@@H](C)[C@@H](O)[C@@H](C)[C@@H](O)C[C@@H]1CC[C@@](C)([C@H]2CC[C@@](C)([C@@H](C)O)O2)O1", "note": "[ionomycin]", "values": [
      {"measurement": "IGF-1R phosphorylation", "setting": "IGF-1R [3]", "value": "increased"}
    ]},
    {"smiles": "C[C@]1(O)C[C@@H](c2nc(-c3ccc4ccc(-c5ccccc5)nc4c3)c3c(N)nccn32)C1", "note": "[linsitinib]", "values": [
      {"measurement": "NE-induced increase in colony formation of lung epithelial cells", "setting": "lung epithelial cells [8]", "value": "significantly suppressed"},
      {"measurement": "NE-induced increase in viability of lung epithelial cells", "setting": "lung epithelial cells [8]", "value": "significantly suppressed"}
    ]},
    {"smiles": "C/C=C(/C)C(=O)O[C@H]1C(C)=C2[C@H]([C@@H]1OC(=O)CCCCCCC)[C@@](C)(OC(C)=O)C[C@H](OC(=O)CCC)[C@@]1(O)[C@H]2OC(=O)[C@@]1(C)O", "note": "[thapsigargin]", "values": [
      {"measurement": "IGF-1R phosphorylation", "setting": "IGF-1R [3]", "value": "increased"}
    ]},
    {"smiles": "COC(=O)C1=C(C)NC(C)=C(C(=O)OC)C1c1ccccc1[N+](=O)[O-]", "note": "[nifedipine]", "values": [
      {"measurement": "NE-mediated IGF-1R activation", "setting": "IGF-1R [1]", "value": "inhibited"},
      {"measurement": "NE-mediated IGF2 secretion", "setting": "IGF2 [2]", "value": "inhibited"}
    ]},
    {"smiles": "O=C(O)CN(CCOCCOCCN(CC(=O)O)CC(=O)O)CC(=O)O", "note": "[EGTA, ethylene glycol tetraacetic acid]", "values": [
      {"measurement": "NE-mediated IGF-1R activation", "setting": "IGF-1R [1]", "value": "inhibited"},
      {"measurement": "NE-mediated IGF2 secretion", "setting": "IGF2 [2]", "value": "inhibited"},
      {"measurement": "IGF-1R phosphorylation", "setting": "IGF-1R [3]", "value": "inhibited"},
      {"measurement": "NNK-increased IGF2 secretion", "setting": "IGF2 [4]", "value": "inhibited"}
    ]},
    {"smiles": "C[C@]12CCC(=O)C=C1CC[C@@H]1[C@@H]2[C@@H](O)C[C@@]2(C)[C@H]1CC[C@]2(O)C(=O)CO", "note": "[cortisol]", "values": [
      {"measurement": "transformation of lung epithelial cells (viability, colony formation, foci formation)", "setting": "lung epithelial cells [7]", "value": "not by cortisol"}
    ]}
  ]
}
